Results on six compounds are retold here after US8044067B2, “Isoquinolines as IGF-1R inhibitors” (Analytecon S.A., priority 2005, dated 2011).

One data set relates to MAPK (Erk1/2). In words: Inhibition of the phosphorylation of MAPK in DU-145 cells (immunoblotting for phospho-MAPK). The class given is cell-based. As to conditions: DU-145 cells (prostate cancer), incubated over night in serum free medium, IGF1 50 nM for 15 minutes. The procedure:
DU-145 cells (prostate cancer) were incubated over night with compound 15 in serum free medium. After stimulation for 15 minutes with IGF1 (50 nM), the cells were lyzed and the lysates analysed by immunoblotting for phospho-MAPK.

Data set [1] relates to insulin receptor substrate 1 (IRS-1). Description: Inhibition of the phosphorylation of insulin receptor substrate 1 (IRS-1) in MF-55 cells. The class given is cell-based. As to conditions: MF-55 cells (malignant melanoma), 100 ng/ml for one hour, IGF-1 50 ng/ml for 5 minutes. The procedure: MF-55 cells (malignant melanoma) were starved for 20 hours, after which half of the cell mass was incubated with racemic compound 15 (100 ng/ml) for one hour. After activation with IGF-1 (50 ng/ml) for 5 minutes, the two cell samples were lyzed in a special buffer (Upstate Ltd., Dundee, UK) that disrupts the cell membrane as well as the nucleus envelope. After removal of cell debris by centrifugation, the supernatants were analyzed for phosphorylated IRS-1 by Upstate Ltd. The presence of racemic compound 15 lowered the amount of phosphorylated IRS-1 with 20% compared to control. By blocking the function of the IGF-1 receptor, the phosphorylation of the insulin receptor substrate 1 is inhibited.

The next data set addresses T1, IGF-1 receptor (Homo sapiens, UniProt P08069).
T1 construct: endogenous in cells; host or cells: MCF-7
In words: Inhibition of the phosphorylation of the IGF-1 receptor in MCF-7 cells (immunoblotting for phospho-IGF-1R Y1135/1136). As to conditions: MCF-7 cells serum starved 20 hours, treated 3 hours, stimulated with 10 nM IGF-1 for 5 minutes. The class given is cell-based. The procedure: MCF-7 cells were serum starved for 20 hours, treated with compound 15 for 3 hours and finally stimulated with 10 nM IGF-1 for 5 minutes. The cells were lyzed and the lysates analysed by SDS-PAGE and immunoblotting for phospho-IGF-1R is (Y1135/1136).

T1 sequence (P08069 741-1367 limits assumed): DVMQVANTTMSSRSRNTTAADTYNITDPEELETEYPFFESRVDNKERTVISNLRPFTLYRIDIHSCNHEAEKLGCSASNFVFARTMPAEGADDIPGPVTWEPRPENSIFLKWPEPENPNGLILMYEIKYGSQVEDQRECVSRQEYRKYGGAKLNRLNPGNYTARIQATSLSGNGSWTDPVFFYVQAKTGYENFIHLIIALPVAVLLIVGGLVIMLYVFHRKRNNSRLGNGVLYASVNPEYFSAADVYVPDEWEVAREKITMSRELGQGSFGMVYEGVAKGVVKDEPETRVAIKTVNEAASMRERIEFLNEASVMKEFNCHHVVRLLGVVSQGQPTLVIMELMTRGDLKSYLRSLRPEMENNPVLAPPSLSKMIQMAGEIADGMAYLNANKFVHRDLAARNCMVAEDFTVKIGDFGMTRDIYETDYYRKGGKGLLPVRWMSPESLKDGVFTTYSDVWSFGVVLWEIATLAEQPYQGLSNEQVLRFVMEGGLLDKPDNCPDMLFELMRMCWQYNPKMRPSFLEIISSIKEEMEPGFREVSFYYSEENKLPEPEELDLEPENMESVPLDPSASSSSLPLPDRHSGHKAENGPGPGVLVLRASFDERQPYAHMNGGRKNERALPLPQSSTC
T1 sequence (P08069 31-736 limits assumed): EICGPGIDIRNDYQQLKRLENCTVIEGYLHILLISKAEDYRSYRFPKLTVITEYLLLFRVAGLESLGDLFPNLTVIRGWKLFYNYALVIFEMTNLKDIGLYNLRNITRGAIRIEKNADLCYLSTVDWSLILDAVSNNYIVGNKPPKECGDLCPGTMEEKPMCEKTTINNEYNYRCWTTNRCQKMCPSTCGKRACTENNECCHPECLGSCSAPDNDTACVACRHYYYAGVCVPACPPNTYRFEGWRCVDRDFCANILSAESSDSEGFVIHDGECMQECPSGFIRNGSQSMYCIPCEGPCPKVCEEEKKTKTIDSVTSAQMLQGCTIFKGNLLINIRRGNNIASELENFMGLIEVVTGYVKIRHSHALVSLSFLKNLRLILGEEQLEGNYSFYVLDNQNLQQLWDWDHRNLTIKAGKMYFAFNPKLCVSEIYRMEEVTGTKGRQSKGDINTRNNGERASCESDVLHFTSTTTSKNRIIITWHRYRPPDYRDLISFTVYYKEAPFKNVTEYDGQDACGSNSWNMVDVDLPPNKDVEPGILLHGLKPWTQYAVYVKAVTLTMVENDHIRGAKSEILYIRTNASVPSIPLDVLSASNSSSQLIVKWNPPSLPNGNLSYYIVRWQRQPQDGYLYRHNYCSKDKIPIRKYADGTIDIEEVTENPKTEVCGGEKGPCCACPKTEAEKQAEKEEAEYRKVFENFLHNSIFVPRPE

`COc1ccc2c(c1)CN(N)C(=O)C2c1cc(OC)c(OC)c(OC)c1.Cl` (stereo not shown) registered a melting point of 164 to 167 °C.
Regarding `COc1cc([C@@H]2c3cc4c(cc3[C@H](O)[C@H]3COC(=O)[C@@H]23)OCO4)cc(OC)c1OC` [Picropodophyllin, reference compound], the IC50 with MAPK (Erk1/2) is ~5 µM.
Regarding `COc1cc(OC)cc(C2C(=O)N(C)Cc3cc(OC)ccc32)c1` (stereo not shown) [Compound 13, 2-methyl-4-(3,5-dimethoxyphenyl)-7-methoxy-1,4-dihydro-3(2H)-isoquinolinone], the melting point lay within 137 to 139 °C.
`COc1cc(C2C(=O)N(C)Cc3cc4c(cc32)OCCO4)cc(OC)c1OC` (stereo not shown) [Compound 9, 2-methyl-4-(3,4,5-trimethoxyphenyl)-6,7-ethylenedioxy-1,4-dihydro-3(2H)-isoquinolinone] yielded a melting point of 148 to 149 °C.
For the compound `COc1ccc2c(c1O)CN(C)C(=O)C2c1cc(OC)c(OC)c(OC)c1` (racemic) [racemic compound 15, 2-methyl-4-(3,4,5-trimethoxyphenyl)-8-hydroxy-7-methoxy-1,4-dihydro-3(2H)-isoquinolinone], the “lowering of the amount of phosphorylated IRS-1 compared to control” value in data set [1] was 20%.
Regarding `COc1ccc2c(c1O)CN(C)C(=O)C2c1cc(OC)c(OC)c(OC)c1` (single isomer, unassigned; (+)) [Compound 15, (+)-2-methyl-4-(3,4,5-trimethoxyphenyl)-8-hydroxy-7-methoxy-1,4-dihydro-3(2H)-isoquinolinone], the IC50 was ~1 µM against IGF-1 receptor and ~0.3 µM in the data set with MAPK (Erk1/2).
